One assay deals with RBL-2H3 cells. Briefly: cells. In kind it is cell-based, rat. The conditions noted are these: Rattus norvegicus; RBL-2H3 cells; read-out: Degran. IC50: concentration inhibiting mast cell degranulation by 50%. Here is the method:
These 87 molecules were also tested in vitro to assess the ability thereof to inhibit RBL-2H3 cell degranulation (see table 1).
(§1) • 1) Chemical products and antibodies. A chemical bank of 3000 molecules (a varied subset) was acquired from ChemBridge, Inc. (San Diego, Calif.). Stocks of solutions of small molecules were prepared at a rate of 10 mM in DMSO (dimethylsulphoxide), except for C-13 (methyl 2-{5-[(3-benzyl-4-oxo-2-thioxo-1,3-thiazolidin-5-ylidene)methyl]-2-furyl}benzoate, ChemBridge ID No. 6197026) prepared in DMF (dimethylformamide). Unless specified otherwise, all the reagents were supplied by Sigma. Dinitrophenyl (DNP) hapten was acquired from Calbiochem. Sepharose GammaBind G and all the secondary antibodies were supplied by GE Health Amersham Biosciences. The anti-Syk, anti-Lyn, anti-Btk, anti-PLC-γ1, anti-PLC-γ2, anti-LAT, anti-SLP-76, anti-p38, anti-JNK, anti-Vav, anti-Akt1 and 9E10 antibodies conjugated with HRP were acquired from Santa Cruz Biotechnology. The anti-phospho-p44/42 MAP Kinase, anti-p44/42 MAP Kinase, anti-phospho-p38, anti-phospho-JNK, anti-phospho-Akt1 antibodies were acquired from Cell Signaling. The anti-phospho-LAT and anti-phospho-PLC-γ1 antibodies were supplied by Biosource and the anti-phospho-SLP-76 antibodies by BD Pharmingen. The 4G10 anti-phosphotyrosine monoclonal antibody was acquired from Upstate Biotechnology. • 2) ADA method: ELISA type high-speed molecule screening test, based on antibody displacement (WO 2005106481). The recombinant fusion protein GST:Syk 6-242^8 comprising the residues 6 to 242 of murine Syk tyrosine kinase protein illustrated in FIG. 8B (SEQ ID No. 4) was immobilised on an ELISA plate at a final concentration of 10 μg ml^−1. For the screening of the chemical molecule bank, the small molecules, diluted in PBS at a final concentration of 10 μM were added to the wells for one hour at ambient temperature, before adding the fragment scFv G4G11 at a final concentration of 100 nM for an additional hour. The binding of G4G11 with Syk was assessed by adding the 9E10 monoclonal antibody conjugated with HRP detecting the amino acid sequence EQKLISEEDLN of human c-myc protein located at the C-terminal end of the scFv fragment. To generate Syk mutants, targeted mutagenesis was used on GST:Syk 6-242 protein and the binding of G4G11 with the mutants was assessed in the presence of 5 μM of C-13. • 3) Cells, culture conditions and functional tests. Anti-DNP 2682-I mouse monoclonal antibody was used as the culture supernatant of hybridomas containing 1 μg/ml of IgE. Femoral bone marrow cells were sampled and cultured in Opti-MEM medium (Gibco) supplemented with 10% foetal calf serum and 4% X63 transfectant supernatant secreting murine IL-3. RBL-2H3 (ATCC) leukaemic rat basophil cells were maintained in a single-layer culture in RPMI 1640 medium supplemented with 10% foetal calf serum (Gibco). Measurements of β-hexosaminidase released by the RBL-2H3 cells were performed as described previously^7, except that, after 12-16 hours of incubation with anti-DNP IgE (0.5 μg/ml), the cells were incubated for 90 min at 37° C. in RPMI medium supplemented with the specified concentrations of C-13 or DMF (0.25%). The cells were stimulated for 45 min with DNP-BSA (50 ng ml^−1) or ionomycin (1.5 μM). The BMMC cells were incubated for one hour at 37° C. with anti-DNP IgE (100 ng/ml). They were then incubated with C-13 (3 μM) or DMF (0.3%) for 3 hours at 37° C., and stimulated with varied concentrations of DNP-BSA. The level of β-hexosaminidase released was measured 10 min later and the TNF-α titration was performed by means of a cytotoxicity test on L929 cells as described previously^10, 3 hours after stimulation. The results illustrated in FIG. 3 are representative of three independent experiments. • 4) Immunoprecipitations, in vitro kinase assays and immunodetection. […]

Assay [1] concerns the target T1, murine Syk tyrosine kinase protein (GST:Syk 6-242) (Mus musculus, UniProt P48025).
T1 construct: made in house
As to the kind of experiment: ADA method: displacement of the binding of scFv G4G11 with Syk (ELISA). The following applies: small molecules at 10 μM, scFv G4G11 100 nM; read-out: In vit. inhib.: mean inhibition % of the binding of scFv G4G11 with Syk in the ADA method.
Description: The term “percentage of inhibition” of the binding of an antibody or antibody fragment with Syk protein, particularly refers to the ratio […], where A consists of the intensity of a signal proportional to the quantity of an antibody or antibody fragment bound with Syk protein in the absence of a molecule according to the invention and B the intensity of the same signal in the presence of a molecule according to the invention under the same conditions. […] This test may be performed for example according to the protocol described in example 3-2) hereinafter.
The inventors developed the ADA (Antigen Displacement Assay) method to identify small molecules capable of displacing the association with scFv G4G11 with Syk. […] To understand the mode of action of C-13, the inventors firstly identified the binding site of G4G11 using the SPOT method^16. An epitope located on the N-terminal SH2 domain of Syk, comprising amino acids 65-74 and 100% preserved in mouse, rat and human sequences, was identified.
The ADA method was then applied to each of these […] molecules to measure the ability thereof to inhibit the binding of scFv G4G11 with Syk.
as §1, with “(Gibco).” for “(Gibco). Measurements of β-hexosaminidase released by the RBL-2H3 cells were performed as described previously^7, except that, after 12-16 hours of incubation with anti-DNP IgE (0.5 μg/ml), the cells were incubated for 90 min at 37° C. in RPMI medium supplemented with the specified concentrations of C-13 or DMF (0.25%). The cells were stimulated for 45 min with DNP-BSA (50 ng ml^−1) or ionomycin (1.5 μM). The BMMC cells were incubated for one hour at 37° C. with anti-DNP IgE (100 ng/ml). They were then incubated with C-13 (3 μM) or DMF (0.3%) for 3 hours at 37° C., and stimulated with varied concentrations of DNP-BSA. The level of β-hexosaminidase released was measured 10 min later and the TNF-α titration was performed by means of a cytotoxicity test on L929 cells as described previously^10, 3 hours after stimulation. The results illustrated in FIG. 3 are representative of three independent experiments. • 4) Immunoprecipitations, in vitro kinase assays and immunodetection.”
In general terms: ELISA stands for enzyme-linked immunosorbent assay.

The structures appear in SMILES notation. Converted amounts (≈) assume the structure as drawn.

With `COc1ccc(C2C(C(=O)c3ccc(C)cc3)=C(O)C(=O)N2CCN2CCOCC2)c(OC)c1` (centres unmarked) [Molecule 34], the IC50 in the assay with RBL-2H3 cells is more than 10 µg/mL. In addition, in assay [1], the inhibition (commonly the share of the control response that was lost under treatment) at 10 µM is 50%.

For the molecule `COc1ccccc1C1C(C(=O)c2cc(C)ccc2C)=C(O)C(=O)N1CCN1CCOCC1` (centres unmarked) [Molecule 7, 4-(2,5-dimethylbenzoyl)-3-hydroxy-5-(2-methoxyphenyl)-1-[2-(4-morpholinyl)ethyl]-1,5-dihydro-2H-pyrrol-2-one], the IC50 with RBL-2H3 cells is more than 10 µg/mL. In addition, the inhibition at 10 µM in assay [1] amounted to 72%.

`COc1cc(C2C(C(=O)c3ccc(C)o3)=C(O)C(=O)N2CCN(C)C)cc(OC)c1OC` (centres unmarked) [Molecule 52, 1-[2-(dimethylamino)ethyl]-3-hydroxy-4-(5-methyl-2-furoyl)-5-(3,4,5-trimethoxyphenyl)-1,5-dihydro-2H-pyrrol-2-one]: in the assay with RBL-2H3 cells, the IC50 is more than 10 µg/mL. In addition, in assay [1], the inhibition at 10 µM amounted to 46%.

For `COc1cccc(C2C(C(=O)c3ccccc3)=C(O)C(=O)N2CCCN2CCOCC2)c1OC` (centres unmarked) [Molecule 74, 4-benzoyl-5-(2,3-dimethoxyphenyl)-3-hydroxy-1-(3-(4-morpholinyl)propyl]-1,5-dihydro-2H-pyrrol-2-one], the IC50 in the assay with RBL-2H3 cells is more than 10 µg/mL. Further, the inhibition at 10 µM in assay [1] was determined as 27.5%.

Consider `Cc1ccc(C(=O)C(C)OC(=O)c2ccc3c(c2)C(=O)C(c2ccc(C)c(Cl)c2)C3=O)cc1` (centres unmarked) [Molecule 41], for which the IC50 in the assay on RBL-2H3 cells is more than 10 µg/mL. In assay [1], the inhibition at 10 µM is 49.5%.

As to `COc1cccc(C2C(C(=O)c3cc(C)ccc3C)=C(O)C(=O)N2CCCN2CCOCC2)c1OC` (centres unmarked) [Molecule 56, 5-(2,3-dimethoxyphenyl)-4-(2,5-dimethylbenzoyl)-3-hydroxy-1-[3-(4-morpholinyl)propyl]-1,5-dihydro-2H-pyrrol-2-one], the IC50 with RBL-2H3 cells is approximately 10 µg/mL (≈ 20.2 µM). Moreover, in assay [1], the inhibition at 10 µM was 42%.

As for `COc1ccc(OC)c(C2C(C(=O)c3ccccc3)=C(O)C(=O)N2CCCn2ccnc2)c1` (centres unmarked) [Molecule 5, 4-benzoyl-5-(2,5-dimethoxyphenyl)-3-hydroxy-1-[3-(1H-imidazol-1-yl)propyl]-1,5-dihydro-2H-pyrrol-2-one], the IC50 in the assay on RBL-2H3 cells is more than 10 µg/mL. The inhibition at 10 µM in assay [1] is 77.5%.

As for `CCN(CC)CCCN1C(=O)C(O)=C(C(=O)c2cc3cccc(OC)c3o2)C1c1ccccn1` (centres unmarked) [Molecule 86, 1-[3-(diethylamino)propyl]-3-hydroxy-4-[(7-methoxy-1-benzofuran-2-yl)carbonyl]-5-(2-pyridinyl)-1,5-dihydro-2H-pyrrol-2-one], in the assay on RBL-2H3 cells, the IC50 was approximately 10 µg/mL (≈ 21.6 µM). In assay [1], the inhibition at 10 µM amounted to 17%.

On to `CCOC(=O)C1CCN(C(=O)c2ccc(CN(c3ccc(C)c(C)c3)S(C)(=O)=O)cc2)CC1` [Molecule 80, ethyl 1-(4-{[(3,4-dimethylphenyl) (methyl sulphonyl)amino]methyl}benzoyl)-4-piperidine carboxylate], for which the IC50 in the assay on RBL-2H3 cells was more than 10 µg/mL. For the same molecule, the inhibition at 10 µM in assay [1] came out at 24.5%.

Turning to `COc1cccc(C2C(C(=O)c3ccc(C)o3)=C(O)C(=O)N2CCN2CCOCC2)c1` (centres unmarked) [Molecule 53, 3-hydroxy-5-(3-methoxyphenyl)-4-(5-methyl-2-furoyl)-1-[2-(4-morpholinyl)ethyl]-1,5-dihydro-2H-pyrrol-2-one], in the assay with RBL-2H3 cells, the IC50 was more than 10 µg/mL. Also, the inhibition at 10 µM in assay [1] stood at 45.5%.

Consider `O=C(C1=C(O)C(=O)N(Cc2cccnc2)C1c1cccc(Oc2ccccc2)c1)c1ccc(F)cc1` (centres unmarked) [Molecule 9, 4-(4-fluorobenzoyl)-3-hydroxy-5-(3-phenoxyphenyl)-1-(3-pyridinylmethyl)-1,5-dihydro-2H-pyrrol-2-one], for which, in the assay on RBL-2H3 cells, the IC50 was more than 10 µg/mL. The inhibition at 10 µM in assay [1] is 71%.

As for `CCOC(=O)c1sc(N2C(=O)C(O)=C(C(=O)c3ccccc3)C2c2ccc(OC)cc2)nc1C` (centres unmarked) [Molecule 37, ethyl 2-[3-benzoyl-4-hydroxy-2-(4-methoxyphenyl)-5-oxo-2,5-dihydro-1H-pyrrol-1-yl]-4-methyl-1,3-thiazole-5-carboxylate], in the assay on RBL-2H3 cells, the IC50 was more than 10 µg/mL. Moreover, in assay [1], the inhibition at 10 µM was determined as 50%.

On to `O=C(Nc1cccc2ccccc12)OCCn1nnnc1C1(N2CCOCC2)CCCCC1` [Molecule 76, 2-{5-[1-(4-morpholinyl)cyclohexyl]-1H-tetrazol-1-yl}ethyl 1-naphthylcarbamate], for which the IC50 in the assay with RBL-2H3 cells was more than 10 µg/mL. In addition, the inhibition at 10 µM in assay [1] amounted to 27%.

Source of the values: US9504676B2, “Molecules inhibiting a metabolic pathway involving the Syk protein tyrosine kinase and method for identifying said molecules” (CENTRE NATIONAL DE LA RECHERCHE SCIENTIFIQUE, priority 2008, dated 2016).
